Laboratory results: article PMC12222587, “A2B adenosine receptor-triggered intracellular calcium mobilization: Cell type-dependent involvement of Gi, Gq, Gs proteins and protein kinase C” (Purinergic Signalling, 2025)
Entries after “also recorded” stand apart in the source; their conditions may differ.

Columns and labels:
[1] = test system: human erythroleukemia cells; settings: cited from earlier work
A2BAR = target: T1, A2BAR (Homo sapiens, UniProt P29275); assay: Intracellular calcium mobilization, T24 bladder cancer cells, native A2BAR (NECA); format: cell-based
T1 sequence (P29275 1-332): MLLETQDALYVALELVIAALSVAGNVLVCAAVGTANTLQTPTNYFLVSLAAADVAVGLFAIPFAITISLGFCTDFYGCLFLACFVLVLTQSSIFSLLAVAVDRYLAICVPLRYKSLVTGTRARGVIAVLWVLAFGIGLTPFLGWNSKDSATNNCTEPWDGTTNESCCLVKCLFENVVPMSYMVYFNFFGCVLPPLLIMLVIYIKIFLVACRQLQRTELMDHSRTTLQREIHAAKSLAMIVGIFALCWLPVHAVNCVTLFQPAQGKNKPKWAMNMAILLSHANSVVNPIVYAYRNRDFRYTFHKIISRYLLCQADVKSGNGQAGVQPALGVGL

β2-adrenergic receptor = β2-adrenergic receptor (Homo sapiens, UniProt P07550); assay: Intracellular calcium mobilization, T24 bladder cancer cells, endogenous β2-adrenergic receptor; format: cell-based
HMC-1 cells = settings: cited from earlier work

Cholera toxin [CTX]
Sensitivity of NECA-induced Ca2+ increase to toxin [1]: ^c NECA-induced Ca^2+ increase in human erythroleukemia cells was sensitive to CTX, Feoktistov et al., 1994 [31]
Effect on native A2BAR (NECA)-triggered calcium mobilization (A2BAR): CTX sensitive (5), Variable, depending on cell type^b, c
Effect on formoterol-induced calcium mobilization (β2-adrenergic receptor) (β2-adrenergic receptor): effect larger than it was on the NECA-induced Ca^2+ response; also recorded: CTX sensitive (6)
Sensitivity of NECA-induced Ca2+ increase to toxin (HMC-1 cells): ^b NECA-induced Ca^2+ increase in HMC-1 cells was insensitive to CTX and PTX, Feoktistov et al., 1995 [30]
